Laboratory results reported in patent publication US7786141B2 (Vertex Pharmaceuticals Incorporated, priority 2004, dated 2010).

How the values were obtained:
[1] = molecular target: T1, M1 muscarinic receptor (Homo sapiens, UniProt P11229); assay: Functional mobilization of intracellular calcium (FLIPR) in M1-CHO cells; type: cell-based; settings: M1 receptor, calcium mobilization; for Emax: read-out: M1 Efficacy
T1 construct: expressed in transfected cells; host or cells: CHO (M1-CHO)
T1 sequence (P11229 1-460): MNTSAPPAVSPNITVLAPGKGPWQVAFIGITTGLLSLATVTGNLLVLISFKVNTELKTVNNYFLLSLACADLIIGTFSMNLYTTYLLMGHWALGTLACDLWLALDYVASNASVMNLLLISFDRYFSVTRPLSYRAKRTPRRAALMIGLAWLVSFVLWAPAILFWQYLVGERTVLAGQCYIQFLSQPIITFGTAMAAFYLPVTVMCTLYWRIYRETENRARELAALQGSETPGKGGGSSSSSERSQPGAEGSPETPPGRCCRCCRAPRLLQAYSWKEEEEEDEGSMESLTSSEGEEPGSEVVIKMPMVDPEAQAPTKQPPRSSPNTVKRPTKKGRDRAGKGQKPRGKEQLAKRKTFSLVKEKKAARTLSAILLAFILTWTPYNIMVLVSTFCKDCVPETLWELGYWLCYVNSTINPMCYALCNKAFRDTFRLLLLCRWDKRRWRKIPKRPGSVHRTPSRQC
Procedure, shortened: (§1)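 Steps: seed M1- or M4-CHO cells 18-24 hrs ahead; load calcium dye with 1 mM probenecid; add test compound (0.5% DMSO final), either alone for agonism or 15 min before EC80 carbachol for inhibition; record FLIPR fluorescence for 60 sec.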

[2] = molecular target: T2, M4 muscarinic receptor (Homo sapiens, UniProt P08173); assay: Functional mobilization of intracellular calcium (FLIPR) in M4-CHO cells; type: cell-based; settings: M4 receptor, calcium mobilization; for Emax: read-out: M4 Efficacy
T2 construct: expressed in transfected cells; host or cells: CHO (M4-CHO)
T2 sequence (P08173 1-479): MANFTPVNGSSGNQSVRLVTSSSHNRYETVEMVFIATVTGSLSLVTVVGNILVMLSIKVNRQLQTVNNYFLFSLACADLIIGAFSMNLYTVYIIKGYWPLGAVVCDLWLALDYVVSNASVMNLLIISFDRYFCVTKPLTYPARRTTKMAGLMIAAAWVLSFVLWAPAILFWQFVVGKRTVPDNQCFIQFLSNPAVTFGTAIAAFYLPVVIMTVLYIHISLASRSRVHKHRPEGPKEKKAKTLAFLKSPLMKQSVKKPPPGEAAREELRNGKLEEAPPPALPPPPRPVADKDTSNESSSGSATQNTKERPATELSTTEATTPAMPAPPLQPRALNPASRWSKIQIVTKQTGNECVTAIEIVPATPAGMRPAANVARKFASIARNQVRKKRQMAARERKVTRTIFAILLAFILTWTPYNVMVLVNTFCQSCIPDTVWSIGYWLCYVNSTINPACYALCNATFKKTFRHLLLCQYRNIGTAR
Procedure, shortened: as §1

COCCOC(=O)N1C2CCC1CC(N1CCC3(CC1)CN(C(=O)N(C)C)c1ccc(F)cc13)C2 (centres unmarked) [compound 119]
M1 Activity [1]: xxx (activity was measured to be less than 0.1 μM) | Emax [1]: < 65% | M4 Activity [2]: x (activity was measured to be greater than 1.0 μM) | Emax [2]: < 65%

CN(C)C(=O)N1CC2(CCN(C3CCN(C(=O)O[C@H]4CCOC4)CC3)CC2)c2cc(F)ccc21 [compound 120]
M1 Activity [1]: xx (activity was measured to be between 0.1 μM and 1.0 μM) | Emax [1]: < 65% | M4 Activity [2]: x (activity was measured to be greater than 1.0 μM) | Emax [2]: < 65%

CS(=O)(=O)N1CC2(CCN(C3CC4CCC(C3)N4C(=O)OC3CCC3)CC2)c2cc(F)ccc21 (centres unmarked) [compound 122]
M1 Activity [1]: xxx (activity was measured to be less than 0.1 μM) | Emax [1]: 65 to 85% | M4 Activity [2]: xx (activity was measured to be between 0.1 μM and 1.0 μM) | Emax [2]: < 65%

O=C(OC1CCC1)N1C2CCC1CC(N1CCC3(CC1)COc1ccc(F)cc13)C2 (centres unmarked) [compound 123]
M1 Activity [1]: xx (activity was measured to be between 0.1 μM and 1.0 μM) | Emax [1]: < 65% | M4 Activity [2]: x (activity was measured to be greater than 1.0 μM) | Emax [2]: < 65%

O=C(OCC(F)(F)F)N1C2CCC1CC(N1CCC3(CC1)COc1ccc(F)cc13)C2 (centres unmarked) [compound 124]
M1 Activity [1]: xxx (activity was measured to be less than 0.1 μM) | Emax [1]: < 65% | M4 Activity [2]: xx (activity was measured to be between 0.1 μM and 1.0 μM) | Emax [2]: < 65%

O=C(OC1CCC1)N1CC2(CCN(C3CC4CCC(C3)N4C(=O)O[C@H]3CCOC3)CC2)c2cc(F)ccc21 (some centres unmarked) [compound 125]
M1 Activity [1]: xxx (activity was measured to be less than 0.1 μM) | Emax [1]: 65 to 85% | M4 Activity [2]: xx (activity was measured to be between 0.1 μM and 1.0 μM) | Emax [2]: < 65%

CCOC(=O)N1CCC(N2CCC3(CC2)CN(C(C)=O)c2ccc(-c4ccccc4)cc23)CC1 [compound 126]
M1 Activity [1]: xxx (activity was measured to be less than 0.1 μM) | Emax [1]: < 65% | M4 Activity [2]: x (activity was measured to be greater than 1.0 μM) | Emax [2]: < 65%

C#CCCOC(=O)N1CCC(N2CCC3(CC2)CN(C(=O)N(C)C)c2ccc(F)cc23)CC1 [compound 127]
M1 Activity [1]: xxx (activity was measured to be less than 0.1 μM) | Emax [1]: 65 to 85% | M4 Activity [2]: xx (activity was measured to be between 0.1 μM and 1.0 μM) | Emax [2]: < 65%

CCOC(=O)N1CCC(N2CCC3(CC2)CN(C(C)=O)c2ccc(-c4ccoc4)cc23)CC1 [compound 128]
M1 Activity [1]: xxx (activity was measured to be less than 0.1 μM) | Emax [1]: < 65% | M4 Activity [2]: xx (activity was measured to be between 0.1 μM and 1.0 μM) | Emax [2]: < 65%

COC(=O)N1CCC(CN2CCC3(CC2)CN(C(C)=O)c2ccc(F)cc23)CC1 [compound 129]
M1 Activity [1]: xxx (activity was measured to be less than 0.1 μM) | Emax [1]: 65 to 85% | M4 Activity [2]: x (activity was measured to be greater than 1.0 μM) | Emax [2]: < 65%

CN(C)C(=O)N1CC2(CCN(C3CC4CCC(C3)N4C(=O)O[C@H]3CCOC3)CC2)c2cc(F)ccc21 (some centres unmarked) [compound 130]
M1 Activity [1]: xxx (activity was measured to be less than 0.1 μM) | Emax [1]: < 65% | M4 Activity [2]: xx (activity was measured to be between 0.1 μM and 1.0 μM) | Emax [2]: < 65%

CCCC1CCC(N2CCC3(CC2)CN(C(C)=O)c2ccc(F)cc23)CC1 (centres unmarked) [compound 131]
M1 Activity [1]: xxx (activity was measured to be less than 0.1 μM) | Emax [1]: 65 to 85% | M4 Activity [2]: xx (activity was measured to be between 0.1 μM and 1.0 μM) | Emax [2]: > 85%

COC(=O)N1CCCC(N2CCC3(CC2)CN(C(C)=O)c2ccc(F)cc23)CC1 (centres unmarked) [compound 132]
M1 Activity [1]: xxx (activity was measured to be less than 0.1 μM) | Emax [1]: > 85% | M4 Activity [2]: xxx (activity was measured to be less than 0.1 μM) | Emax [2]: > 85%

O=C(OC1CCCC1)N1C2CCC1CC(N1CCC3(CC1)COc1ccc(F)cc13)C2 (centres unmarked) [compound 133]
M1 Activity [1]: xxx (activity was measured to be less than 0.1 μM) | Emax [1]: > 85% | M4 Activity [2]: xx (activity was measured to be between 0.1 μM and 1.0 μM) | Emax [2]: 65 to 85%
